Data reported in article PMC10479830, “Nucleoside analogs NM107 and AT-527 are antiviral against rubella virus” (PNAS Nexus, 2023).
Like-named read-outs stand apart in the source and are kept apart here.

Legend:
rubella virus [1] = experiment: viral titers of A549 supernatants, TCID50 assay; type: cell-based; conditions: A549 cells, 10 µM, 48 hpi, at the limit of detection
Description: (§1) A549 or Jeg-3 cells were plated, treated, and infected as for the qRT–PCR experiments. At 4 hpi, cells were washed twice with DPBS (Invitrogen) to remove any nonadsorbed virus and 2 mL of appropriate culture medium treated with vehicle or drug was added. At 48 hpi, cell supernatants were collected and titered by TCID50 assay.
(§2) A549 cells were plated in 96 well plates at 25,000 cells/well and incubated overnight before inoculating with two-fold serial dilutions of viral stock or virus-containing supernatant to determine viral titer. At 24 hpi, plates were processed for microscopy and imaged as above. Titers were calculated using the Reed–Muench method ([26]).

rubella virus [2] = experiment: qRT-PCR of viral RNA in infected A549 cells; type: cell-based; conditions: 10 µM, 48 h, vs vehicle
Description: (§3) We next performed orthogonal assays to determine the magnitude of the inhibition of rubella infection upon treatment with either NM107 or AT-527. […] We also determined if these nucleoside analogs impacted virus production.
(§4) A549 cells were plated in 6-well plates at 5 × 10^5 cells/well, HBMEC were plated at 6 × 10^5 cells/well, or Jeg-3 cells were plated at 5 × 10^5 cells/well. Twenty-four hours later, vehicle or drugs were added at the indicated concentrations. One hour later, cells were infected with rubella virus (MOI = 0.17 for A549s, MOI = 0.07 for HBMEC, MOI = 0.05 for Jeg-3 cells) and HBMEC were spin-infected by centrifuging at 1,250×g for 1 h at 25°C. […] At 48 hpi, total RNA was purified using Trizol (Invitrogen) followed by the RNA Clean and Concentrate kit (Zymo Research). cDNA synthesis was performed with random hexamers and Moloney murine leukemia virus reverse transcriptase (Invitrogen). Gene-specific primers to rubella RA27/3 NSP and GAPDH were used (Table S4). […] Relative quantities of viral and cellular RNA were calculated using a relative standard curve method where quantification was performed with respect to a 5-point standard curve generated from serial dilutions of a pooled reference generated by combining each sample cDNA for the experiment. […]

rubella virus [3] = experiment: rubella virus infection of Jeg-3 cells, dose-response; type: cell-based; conditions: Rubella virus
Description: Since rubella can cause congenital infections, we next developed assays in the human trophoblast cell line Jeg-3.
(§5) A549 cells were plated in 384 well plates at 3,000 cells/well, HBMEC were plated at 7,000 cells/well, or Jeg-3 cells were plated at 3,000 cells/well in 20 μL growth media. The next day, 50 nL of drugs were added to assay wells, yielding a final concentration of 1 µM. The positive control nanchangmycin (n = 32) and the negative control DMSO (n = 32) were spotted on each assay plate. One hour later, cells were infected with rubella virus at a multiplicity of infection (MOI) = 0.234 for A549s, MOI = 0.1 for HBMEC, MOI = 0.05 for Jeg-3 cells). […] HBMECs were spin-infected by centrifuging at 1,250×g for 1 h at 25°C. Cells were fixed at 48 h post infection (hpi) in 4% formaldehyde/phosphate-buffered saline (PBS) for 15 min at room temperature and then washed twice with PBS. Cells were blocked with blocking buffer [2% bovine serum albumin in PBS with 0.1% Triton X-100 (PBST)]) for 1 h and incubated with primary antibody (mouse antirubella E1, CDC, 1 μg/mL) overnight at 4°C. Cells were washed three times with PBST and incubated in secondary (1:1000 antimouse Alexa Fluor 488 and 5 μg/mL Hoechst 33342) for 1 h at room temperature. Cells were washed three times with PBST and imaged using ImageXpress Micro (Molecular Devices). Cells were imaged with a 10× objective capturing four sites per well. The total number of cells and the percentage of infected cells were measured using the MetaXpress 5.3.3 cell scoring module. The aggregated percent infection of the DMSO and 2 µM nanchangmycin control wells on each assay plate were used to calculate Z′-factors. Sample well infection was normalized to aggregated DMSO plate control wells and expressed as percentage of control (POC = [%Infection sample/Average %Infection DMSO] × 100) and Z-score (Z = [%Infection sample − Average %Infection DMSO]/Standard Deviation %Infection DMSO) in Spotfire (PerkinElmer). Candidate hits were selected as compounds with POC <40% and viability >60%, compared with vehicle control.
(§6) Drugs were purchased as powders from Selleckchem, MedchemExpress, and MedKoo and suspended in DMSO. Drugs were arrayed in 8-pt dose–response in 384 well plates. Infections were performed using the screening conditions. DMSO (n = 32) and 2 µM nanchangmycin (n = 16) were included on each validation plate as controls for normalization. Infection at each drug concentration was normalized to aggregated DMSO plate control wells and expressed as POC (POC = %Infection sample/Average %Infection DMSO cont). A nonlinear regression curve fit analysis (GraphPad Prism 8) was performed on POC infection and cell viability using log10 transformed concentration values to calculate IC50 values for infection and CC50 values for cell viability. SI was calculated as a ratio of the drug's CC50 and IC50 values (SI = CC50/IC50).

HCV [4] = system: HCV; design: method as in PMID 31914458; conditions: cited from earlier work
rubella RA27/3 virus = experiment: microbe, parasite or virus in culture; type: cell-based; conditions: for selectivity index (SI = CC50/IC50): A549 cells; for IC50: Rubella virus
Source text: (§7) We developed a high-throughput, high-content, cell-based assay to monitor rubella virus infection of the human respiratory cell line A549, as the respiratory tract is infected in humans. […] We infected A549 cells with the rubella virus vaccine strain (RA27/3) and monitored infection using an antibody to the viral glycoprotein E1 (Fig. 1A) ([13]). […] To evaluate the utility of nanchangmycin as a positive control for our assay development, we performed a dose–response assay for nanchangmycin using automated fluorescent microscopy to quantify the cell number as a surrogate for cell viability and percent infection (Fig. 1A).
as §5, with “plate.” for “plate. One hour later, cells were infected with rubella virus at a multiplicity of infection (MOI) = 0.234 for A549s, MOI = 0.1 for HBMEC, MOI = 0.05 for Jeg-3 cells).”, “Cells were washed three times with PBST and incubated in secondary (1:1000 antimouse Alexa Fluor 488 and 5 μg/mL Hoechst 33342) for 1 h at room temperature.” left out
as §6

rubella virus [5] = experiment: viral titers of Jeg-3 supernatants, TCID50 assay; type: cell-based; conditions: Jeg-3 cells, 10 μM, 48 hpi, below the limit of detection
Description: as §1, §2

rubella virus [6] = experiment: qRT-PCR of viral RNA in infected Jeg-3 cells; type: cell-based; conditions: 10 μM, 48 h, vs vehicle
Description: as §3, §4

rubella virus [7] = experiment: rubella virus infection of HBMEC, dose-response; type: cell-based; conditions: Rubella virus
Description: Rubella virus can infect diverse tissues in vivo, and viruses can show tissue-specific dependencies on host factors. […] First, we developed assays in human brain microvascular endothelial cells (HBMECs) as a model for endothelial cells. We again used nanchangmycin to optimize the assay (Fig. 3A and B).
as §5, §6

[8] = cell number (cell viability) in HBMEC; type: cell-based; conditions: human, HBMEC (infected with rubella virus)
Description: A549 cells were plated in 384 well plates at 3,000 cells/well, HBMEC were plated at 7,000 cells/well, or Jeg-3 cells were plated at 3,000 cells/well in 20 μL growth media. The next day, 50 nL of drugs were added to assay wells, yielding a final concentration of 1 µM. The positive control nanchangmycin (n = 32) and the negative control DMSO (n = 32) were spotted on each assay plate. One hour later, cells were infected with rubella virus at a multiplicity of infection (MOI) = 0.234 for A549s, MOI = 0.1 for HBMEC, MOI = 0.05 for Jeg-3 cells). […] HBMECs were spin-infected by centrifuging at 1,250×g for 1 h at 25°C. […] The total number of cells and the percentage of infected cells were measured using the MetaXpress 5.3.3 cell scoring module. […] Sample well infection was normalized to aggregated DMSO plate control wells and expressed as percentage of control (POC = [%Infection sample/Average %Infection DMSO] × 100) and Z-score (Z = [%Infection sample − Average %Infection DMSO]/Standard Deviation %Infection DMSO) in Spotfire (PerkinElmer). […]
(§8) Drugs were purchased as powders from Selleckchem, MedchemExpress, and MedKoo and suspended in DMSO. […] Infection at each drug concentration was normalized to aggregated DMSO plate control wells and expressed as POC (POC = %Infection sample/Average %Infection DMSO cont). […] SI was calculated as a ratio of the drug's CC50 and IC50 values (SI = CC50/IC50).

[9] = design: method as in PMID 16248033; conditions: cited from earlier work
[10] = cell number (cell viability) in Jeg-3 cells; type: cell-based, human; conditions: human, Jeg-3 cells (infected with rubella virus)
Description: as §5, with “The aggregated percent infection of the DMSO and 2 µM nanchangmycin control wells on each assay plate were used to calculate Z′-factors.” left out, “Candidate hits were selected as compounds with POC <40% and viability >60%, compared with vehicle control.” left out
as §8

[11] = cell number (cell viability) in A549 cells, Hoechst 33342, automated microscopy; type: cell-based, human; conditions: human, A549 cells (infected with rubella virus RA27/3); A549 cells, cell number; read-out: half-maximal cytotoxicity concentration (CC50)
Source text: as §7, §5, §6

HCV [12] = system: HCV; design: method as in PMID 16248033; conditions: reason for discontinuation; cited from earlier work
rubella virus [13] = system: rubella virus; design: method as in PMID 30680653, PMID 28974385; conditions: cited from earlier work
rubella virus [14] = system: rubella virus; design: method as in PMID 30680653, PMID 28974385; conditions: case study; cited from earlier work

CNc1nc(N)nc2c1ncn2[C@@H]1O[C@H](CO[P@@](=O)(N[C@@H](C)C(=O)OC(C)C)Oc2ccccc2)[C@@H](O)[C@@]1(C)F [AT-527]
reduction of viral titers (rubella virus [1]): ~100,000 fold | reduction in viral replication as measured by qRT-PCR (rubella virus [2]): > 100 fold | IC50 (rubella virus [3]; JEG-3, read-out: IC50, rubella virus infection): 10 nM | in vivo activity in a clinical trial (HCV [4]; HCV infection): showed in vivo activity | tolerability in clinical trial (HCV [4]): well tolerated | selectivity index (SI = CC50/IC50) (rubella RA27/3 virus): > 9 | IC50 (rubella RA27/3 virus; A549, read-out: half-maximal inhibitory concentration (IC50), rubella virus infection): 2250 nM | reduction of viral titers (rubella virus [5]): ~10,000 fold | reduction in viral RNA by qRT-PCR (rubella virus [6]): > 100 fold

C[C@@]1(O)[C@H](O)[C@@H](CO)O[C@H]1n1ccc(N)nc1=O [NM107, 2′-C-methylcytidine]
reduction of viral titers (rubella virus [1]): ~100,000 fold | IC50 (rubella virus [7]): < 10 nM | reduction in viral replication as measured by qRT-PCR (rubella virus [2]): > 100 fold | CC50 at 48 h [8]: > 20000 nM | IC50 (rubella virus [3]; Jeg-3 cells, read-out: IC50, rubella virus infection): 600 nM | bioavailability [9]: low bioavailability | CC50 at 48 h [10]: > 20000 nM | CC50 at 48 h [11]: > 20000 nM | selectivity index (SI = CC50/IC50) (rubella RA27/3 virus): > 817 | IC50 (rubella RA27/3 virus; A549, read-out: IC50, rubella virus infection): 20 nM | reduction of viral titers (rubella virus [5]): ~10,000 fold | reduction in viral RNA by qRT-PCR (rubella virus [6]): > 100 fold

CC(C)[C@H](N)C(=O)O[C@@H]1[C@@H](CO)O[C@@H](n2ccc(N)nc2=O)[C@]1(C)O [NM283]
toxicity in clinical trials (HCV [12]): gastrointestinal toxicity

CC(=O)Oc1ccccc1C(=O)Nc1ncc([N+](=O)[O-])s1 [nitazoxanide]
antiviral activity in cultured cells infected with rubella virus (rubella virus [13]): showed antiviral activity | rubella virus antigen in patient (skin lesions) (rubella virus [14]): reduced rubella antigen
